Laboratory results reported in US20080280303A1, “G-PROTEIN COUPLED RECEPTORS HIGH-[…]” (priority 2003, published 2008).

Tests used:
Format in all cases: cell-based
EPAC = biological target: T1, EPAC (Homo sapiens, UniProt O95398); assay: R-SAT proliferation, EPAC co-expressed with ras/rapAA, with or without 8-Br cAMP; settings: 250 uM 8-Br cAMP; ras/rapAA 20 ng per well
T1 construct: expressed in transfected cells; host or cells: NIH 3T3
T1 sequence (O95398 1-923): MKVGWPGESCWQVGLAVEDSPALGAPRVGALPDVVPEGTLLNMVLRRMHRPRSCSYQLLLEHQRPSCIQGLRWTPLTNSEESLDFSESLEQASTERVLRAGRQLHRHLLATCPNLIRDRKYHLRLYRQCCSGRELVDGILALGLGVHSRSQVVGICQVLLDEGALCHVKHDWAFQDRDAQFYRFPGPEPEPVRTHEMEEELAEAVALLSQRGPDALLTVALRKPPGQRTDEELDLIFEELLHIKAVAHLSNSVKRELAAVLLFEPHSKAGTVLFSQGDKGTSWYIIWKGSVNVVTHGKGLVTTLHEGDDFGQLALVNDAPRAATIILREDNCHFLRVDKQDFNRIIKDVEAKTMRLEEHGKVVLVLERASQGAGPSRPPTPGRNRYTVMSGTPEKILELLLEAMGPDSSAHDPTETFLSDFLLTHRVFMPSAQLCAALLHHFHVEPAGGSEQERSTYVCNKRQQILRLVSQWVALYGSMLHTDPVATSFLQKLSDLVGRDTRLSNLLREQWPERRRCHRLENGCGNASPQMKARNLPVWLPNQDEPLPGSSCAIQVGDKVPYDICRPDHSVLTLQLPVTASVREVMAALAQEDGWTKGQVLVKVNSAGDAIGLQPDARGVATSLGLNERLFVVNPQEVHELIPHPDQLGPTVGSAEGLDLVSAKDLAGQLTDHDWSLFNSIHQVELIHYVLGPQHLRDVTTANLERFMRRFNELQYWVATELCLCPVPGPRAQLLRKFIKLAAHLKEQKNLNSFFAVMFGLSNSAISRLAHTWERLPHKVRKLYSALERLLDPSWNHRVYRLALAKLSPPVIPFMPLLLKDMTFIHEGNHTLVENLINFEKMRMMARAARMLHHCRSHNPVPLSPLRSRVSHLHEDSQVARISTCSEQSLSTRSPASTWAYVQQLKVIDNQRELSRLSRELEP
Procedure: FIG. 2. Characterization of regulation and signaling properties of ras/rap chimeras. A) Proliferative responses of ras, rap, and ras/rap measured in R-SAT. 4 ng/well each of wild-type or GTPase deficient (V 12) mutants of ras, rap1A, or ras/rap1A (24) were transfected and analyzed for proliferative responses as described in Methods. B & C) Rap-selective exchange factors activate cellular proliferation in a ras/rap chimera dependent manner. B) Synergy of EPAC with ras/rap chimeras. Two ng per well of the rap selective exchange factor EPAC was co-expressed with 20 ng per well of either rap1B, ras/rap1A, ras/rap1B, ras/rapAA, or control vector and analyzed for proliferative responses as described above. C) Synergy of C3G with ras/rap chimeras. Twenty ng per well of the rap selective exchange factor C3G (68) was co-expressed with 20 ng per well of either rap1B, ras/rap1A, ras/rap1B, ras/rapAA, or control vector and analyzed for proliferative responses as described above. D) The indicated doses (ng per well) of EPAC were co-expressed with 20 ng per well of ras/rapAA in the presence or absence of 250 uM 8-Br cAMP and analyzed for proliferative responses as described above. […] Either 10 ng per well of control vector, ras or ras/rapAA was co-expressed with EPAC (2 ng per well), C3G (10 ng per well), or Sos2 (10 ng per well) and analyzed for proliferative responses. […]

5HT1E serotonin receptor = biological target: T2, 5HT1E serotonin receptor (Homo sapiens, UniProt P28566); assay: R-SAT cellular proliferation, 5HT1E co-expressed with ras/rapAA, with or without pertussis toxin; settings: 100 ug/ml pertussis toxin; agonist BRL54443; NIH 3T3 cells
T2 construct: expressed in transfected cells; host or cells: NIH 3T3
T2 sequence (P28566 whole entry): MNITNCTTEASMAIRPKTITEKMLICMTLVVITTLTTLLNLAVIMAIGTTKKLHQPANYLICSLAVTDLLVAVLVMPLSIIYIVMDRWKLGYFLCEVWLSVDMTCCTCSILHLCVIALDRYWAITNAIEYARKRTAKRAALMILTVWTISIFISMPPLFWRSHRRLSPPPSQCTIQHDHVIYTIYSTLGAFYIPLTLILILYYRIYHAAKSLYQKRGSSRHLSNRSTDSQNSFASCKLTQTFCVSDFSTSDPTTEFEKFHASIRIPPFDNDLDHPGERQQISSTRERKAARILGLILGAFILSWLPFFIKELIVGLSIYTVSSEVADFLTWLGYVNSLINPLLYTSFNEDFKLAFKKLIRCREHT
Procedure: (§1) FIG. 4. Pertussis toxin sensitivity of ras/rap dependent proliferative responses to Gs-coupled and Gi-coupled GPCRs. A) D1 (4 ng per well) and ras/rapAA (20 ng per well) were co-expressed and analyzed for proliferative responses in the presence or absence of 100 ug/ml pertussis toxin in the presence of the indicated concentrations of SKF81297. B) 5HT1E (20 ng per well) and ras/rapAA (20 ng per well) were co-expressed and analyzed for proliferative responses in the presence or absence of 100 ug/ml pertussis toxin in the presence of the indicated concentrations of BRL54443. C) D2 (4 ng/well), alpha2C (20 ng/well), and SST5 (4 ng/well) were each expressed with ras/rapAA (20 ng/well), incubated with the indicated concentrations of ligand and either with or without 100 ng/ml pertussis toxin (PTX) and analyzed for proliferative responses as described above. Control represents the receptors expressed alone.
(§2) Functional assays. […] After five days in culture β-galactosidase levels were measured essentially as described (35). […] After 3 hr the plates were read at 420 nm on a plate-reader (Bio-Tek EL 310 or Molecular Devices). […]

D1 dopamine receptor = biological target: T3, D1 dopamine receptor (Homo sapiens, UniProt P21728); assay: R-SAT cellular proliferation, D1 co-expressed with ras/rapAA, with or without pertussis toxin; settings: 100 ug/ml pertussis toxin; agonist SKF81297; NIH 3T3 cells
T3 construct: expressed in transfected cells; host or cells: NIH 3T3
T3 sequence (P21728 whole entry): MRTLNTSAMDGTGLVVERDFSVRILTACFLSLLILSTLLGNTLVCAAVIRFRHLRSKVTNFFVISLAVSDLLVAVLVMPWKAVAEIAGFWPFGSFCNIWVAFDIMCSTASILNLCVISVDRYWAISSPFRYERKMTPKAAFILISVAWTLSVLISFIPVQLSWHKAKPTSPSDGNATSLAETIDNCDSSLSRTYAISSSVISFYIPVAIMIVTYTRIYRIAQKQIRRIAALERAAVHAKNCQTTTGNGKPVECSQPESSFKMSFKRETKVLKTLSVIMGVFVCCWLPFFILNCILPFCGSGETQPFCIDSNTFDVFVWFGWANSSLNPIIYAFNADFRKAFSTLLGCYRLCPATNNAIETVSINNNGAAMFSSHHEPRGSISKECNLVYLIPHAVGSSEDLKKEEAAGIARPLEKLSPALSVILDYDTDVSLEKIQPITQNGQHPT
Procedure: as §1, §2

GPR12 = biological target: T4, GPR12 (Homo sapiens, UniProt P47775); assay: R-SAT constitutive proliferation, orphan receptor with ras/rapAA and ACII, with or without pertussis toxin; settings: PTX, 100 ng/ml
T4 construct: expressed in transfected cells
T4 sequence (P47775 1-334): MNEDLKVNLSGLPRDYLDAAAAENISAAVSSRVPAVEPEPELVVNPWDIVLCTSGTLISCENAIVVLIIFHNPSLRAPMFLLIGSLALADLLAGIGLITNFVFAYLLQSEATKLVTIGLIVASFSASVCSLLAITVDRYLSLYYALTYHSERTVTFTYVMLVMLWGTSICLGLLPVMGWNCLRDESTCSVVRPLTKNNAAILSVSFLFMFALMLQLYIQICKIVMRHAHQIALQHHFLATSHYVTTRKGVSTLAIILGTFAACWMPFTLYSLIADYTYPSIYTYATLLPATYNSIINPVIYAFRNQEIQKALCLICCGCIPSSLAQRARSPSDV
Procedure: (§3) FIG. 7. Functional validation and characterization of orphan GPCRs using helper genes. A) The indicated receptors were expressed at two doses either alone, with ras/rapAA (20 ng/well) and ACII (2 ng/well), or Gαq (4 ng/well) and analyzed for constitutive stimulation of cellular proliferation as described above. Control represents the transfection of the same helper genes with vector substituting for receptor. The transfections were all balanced with vector to ensure the same total amount of DNA was transfected in each case. PI hydrolysis assays were carried out using tsa cells transfected with 20 ng/well of each receptor as described in Methods. B) The indicated receptors were expressed at two doses either alone, with ras/rapAA (20 ng/well) and ACII (2 ng/well), or Gαq (4 ng/well) and analyzed for constitutive stimulation of cellular proliferation as described above. Control represents the transfection of the same helper genes with vector substituting for receptor. The transfections were all balanced with vector to ensure the same total amount of DNA was transfected in each case. Cyclic AMP accumulation assays were carried out using HEK293 cells transfected with 20 ng/well of each receptor as described in Methods. C) The indicated receptors were expressed at with ras/rapAA (20 ng/well) and ACII (2 ng/well), incubated in the presence or absence of pertussis toxin (PTX, 100 ng/ml) and analyzed for constitutive stimulation of cellular proliferation as described above. Control represents the transfection of the same helper genes with vector substituting for receptor. D) The indicated receptors were tested for stimulation of cyclic AMP production as described in the experimental methods.
as §2

GPR3 = biological target: T5, GPR3 (Homo sapiens, UniProt P46089); assay: as above; settings: PTX, 100 ng/ml
T5 construct: expressed in transfected cells
T5 sequence (P46089 whole entry, species assumed): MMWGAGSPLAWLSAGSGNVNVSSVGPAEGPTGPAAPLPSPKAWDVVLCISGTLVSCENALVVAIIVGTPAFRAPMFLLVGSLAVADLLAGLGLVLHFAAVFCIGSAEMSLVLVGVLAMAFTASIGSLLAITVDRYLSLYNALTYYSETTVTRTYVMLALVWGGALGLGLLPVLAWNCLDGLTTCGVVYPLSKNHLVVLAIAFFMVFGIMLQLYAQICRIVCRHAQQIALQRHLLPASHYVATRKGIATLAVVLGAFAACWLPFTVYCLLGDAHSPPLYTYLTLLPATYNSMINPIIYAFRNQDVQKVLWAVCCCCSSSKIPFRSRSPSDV
Procedure: as §3, §2

GPR6 = biological target: T6, GPR6 (Homo sapiens, UniProt P46095); assay: as above; settings: PTX, 100 ng/ml
T6 construct: expressed in transfected cells
T6 sequence (P46095 whole entry, species assumed): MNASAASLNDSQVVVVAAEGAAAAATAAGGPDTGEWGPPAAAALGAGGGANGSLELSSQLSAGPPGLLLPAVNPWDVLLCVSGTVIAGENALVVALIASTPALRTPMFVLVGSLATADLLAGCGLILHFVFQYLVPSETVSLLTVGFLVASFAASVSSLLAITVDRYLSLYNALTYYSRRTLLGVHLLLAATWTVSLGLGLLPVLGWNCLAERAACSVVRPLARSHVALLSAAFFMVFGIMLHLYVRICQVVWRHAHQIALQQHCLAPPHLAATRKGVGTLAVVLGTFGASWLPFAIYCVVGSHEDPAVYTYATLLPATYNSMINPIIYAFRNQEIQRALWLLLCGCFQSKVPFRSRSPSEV
Procedure: as §3, §2

Nc1ncnc2c1nc(Br)n2[C@@H]1O[C@@H]2COP(=O)(O)O[C@H]2[C@H]1O [8-Br cAMP]
stimulation of EPAC to induce ras/rap-dependent responses (EPAC): stimulated

pertussis toxin
effect on ras/rap dependent responses to 5HT1E (5HT1E serotonin receptor): completely blocked
effect on ras/rap dependent responses to D1 (D1 dopamine receptor): did not block, and slightly increased
effect on helper gene dependent constitutive response to GPR12 (GPR12): hardly affected
effect on helper gene dependent constitutive response to GPR3 (GPR3): hardly affected
effect on helper gene dependent constitutive response to GPR6 (GPR6): significantly blunted
